This note sets out measurements from PubChem BioAssay (NCI).

Among the test systems are SF-268 CNS; NCI-H522 lung; COLO 205 colon; NCI-H23 lung; SW-620 colon; OVCAR-4 ovarian; U251 CNS; PC-3 prostate; LOX IMVI melanoma; MDA-MB-435.
Holding throughout (experiment): growth of human tumour cells (NCI), 48 h

Molecules are shown by their SMILES.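 Five compound concentrations were applied to cells in 96-well plates for 48 hours; endpoints were derived by simple linear interpolation of the resulting dose-response curve. Here, GI50 denotes the concentration required for 50% inhibition of growth. TGI marks complete inhibition of growth.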

On to `O=C(N/N=C(/COc1ccc(Cl)cc1)N=Cc1ccncc1)c1ccncc1`, for which the TGI in the test with SF-268 CNS, with NCI-H522 lung, in the test on COLO 205 colon, in the test on NCI-H23 lung, in the test on SW-620 colon and with OVCAR-4 ovarian was more than 100 µM throughout. The TGI in the test on U251 CNS, in the test on PC-3 prostate, in the test with LOX IMVI melanoma and with MDA-MB-435 was more than 100 µM each time.
With `c1csc(-c2ccc(-c3cccc4nsnc34)s2)c1`, the TGI with SF-268 CNS, in the test with NCI-H522 lung, with COLO 205 colon, in the test with NCI-H23 lung, in the test on SW-620 colon and with OVCAR-4 ovarian was more than 100 µM throughout. Also, the TGI with U251 CNS, in the test on PC-3 prostate, in the test with LOX IMVI melanoma and in the test with MDA-MB-435 was more than 100 µM throughout.
For `COC(=O)C1SC(SC)=NC12c1ccccc1Nc1ccccc12` (centres undefined), the TGI is more than 100 µM in the test with SF-268 CNS; 49.3 µM with NCI-H522 lung; 39.3 µM with COLO 205 colon; 38.9 µM in the test with NCI-H23 lung; more than 100 µM in the test on SW-620 colon; more than 100 µM with OVCAR-4 ovarian. Besides, the TGI came out at 66.6 µM with U251 CNS, 87 µM in the test on PC-3 prostate, 32.2 µM with LOX IMVI melanoma and 67.8 µM with MDA-MB-435.
`NC(N)=N/N=C/c1c(-c2ccc(N)cc2)nc2sccn12`: the TGI in the test with SF-268 CNS was more than 100 µM; with NCI-H522 lung, 76 µM; in the test with COLO 205 colon, 57.8 µM; in the test on NCI-H23 lung, 95.2 µM; in the test on SW-620 colon it was 68.2 µM; in the test on OVCAR-4 ovarian, more than 100 µM. In addition, the TGI in the test on U251 CNS was 64.1 µM; in the test with PC-3 prostate, 58.7 µM; in the test on LOX IMVI melanoma, more than 100 µM; in the test with MDA-MB-435 it was 94 µM.
In the case of `CCCCCCc1cc2cc(-c3csc(CC#N)n3)c(=O)oc2cc1O`, the TGI is more than 100 µM with SF-268 CNS; more than 100 µM in the test with NCI-H522 lung; more than 100 µM in the test with COLO 205 colon; more than 100 µM in the test with NCI-H23 lung; more than 100 µM in the test with SW-620 colon; 12.9 µM in the test with OVCAR-4 ovarian. Moreover, the TGI in the test with U251 CNS, in the test with PC-3 prostate, in the test on LOX IMVI melanoma and in the test with MDA-MB-435 was more than 100 µM throughout.
Regarding `CCOC(=O)C1(C/C=C/CBr)Cc2ccccc2C1=O` (centres undefined), the TGI with SF-268 CNS was 10 µM; in the test with NCI-H522 lung, 3.11 µM; in the test with COLO 205 colon, 11.7 µM; in the test on NCI-H23 lung it was 4.47 µM; in the test with SW-620 colon, 7.06 µM; with OVCAR-4 ovarian it was 6.02 µM. The TGI with U251 CNS came out at 14.8 µM; in the test on PC-3 prostate, 19.2 µM; with LOX IMVI melanoma, 3.23 µM; in the test with MDA-MB-435, 3.19 µM.
As to `[N-]=[N+]=NC[C@H]1OCO[C@H](CN=[N+]=[N-])[C@@H](OCCOCCCl)[C@@H]1OCCOCCCl`, the TGI with SF-268 CNS, with NCI-H522 lung, with COLO 205 colon, with NCI-H23 lung, with SW-620 colon and in the test with OVCAR-4 ovarian was more than 100 µM in each case. Further, the TGI in the test with U251 CNS, with PC-3 prostate, with LOX IMVI melanoma and with MDA-MB-435 was more than 100 µM in each case.
As to `CC(C)(C)N1CSC(=S)N(Cc2ccco2)C1`, the TGI stood at 15.1 µM in the test with SF-268 CNS; 12 µM in the test on NCI-H522 lung; 14.7 µM with COLO 205 colon; 11.1 µM with NCI-H23 lung; 11.9 µM in the test with SW-620 colon; 26.7 µM with OVCAR-4 ovarian. In addition, the TGI in the test on U251 CNS came to 14.4 µM; in the test with PC-3 prostate, 13.7 µM; with LOX IMVI melanoma, 14.6 µM; in the test with MDA-MB-435, 13.4 µM.
Consider `COc1ccc(COCCOCc2nc(C#N)c(N)o2)cc1`, for which the TGI was more than 100 µM in the test with SF-268 CNS; 75.8 µM in the test with NCI-H522 lung; more than 100 µM in the test with COLO 205 colon; more than 100 µM in the test with NCI-H23 lung; more than 100 µM in the test on SW-620 colon; more than 100 µM with OVCAR-4 ovarian. Further, the TGI with U251 CNS, with PC-3 prostate, in the test on LOX IMVI melanoma and with MDA-MB-435 was more than 100 µM each time.
With `CCOC(=O)C(SCCO)C(C(=O)OCC)n1cnc2c(=O)[nH]c(NC(C)=O)nc21` (centres undefined), the TGI in the test with SF-268 CNS, with NCI-H522 lung, with COLO 205 colon, in the test with NCI-H23 lung, in the test on SW-620 colon and in the test with OVCAR-4 ovarian was more than 100 µM throughout. In addition, the TGI with U251 CNS, in the test on PC-3 prostate, in the test with LOX IMVI melanoma and with MDA-MB-435 was more than 100 µM throughout.
For the compound `O=C1CSC(c2ccc(Cl)cc2)N1c1ccc(Oc2ccc(Cl)cc2)c(Cl)c1` (centres undefined), the TGI with SF-268 CNS amounted to 24 µM; with NCI-H522 lung, 23.3 µM; in the test on COLO 205 colon it was 34.3 µM; in the test on NCI-H23 lung it was 31.4 µM; in the test with SW-620 colon it was 45 µM; in the test with OVCAR-4 ovarian, 28.1 µM. In addition, the TGI in the test on U251 CNS was determined as 36.2 µM; in the test with PC-3 prostate, 31.3 µM; in the test on LOX IMVI melanoma, 30.7 µM; in the test on MDA-MB-435, 39 µM.
In the case of `COc1cc(C2c3cc4c(cc3OC(N3CCOCC3)C2C)OCO4)ccc1O` (centres undefined), the TGI is more than 100 µM with SF-268 CNS; 58.4 µM in the test with NCI-H522 lung; more than 100 µM with COLO 205 colon; more than 95.7 µM with NCI-H23 lung; more than 100 µM in the test with SW-620 colon; more than 100 µM with OVCAR-4 ovarian. The TGI in the test with U251 CNS was more than 100 µM; in the test with PC-3 prostate, more than 100 µM; in the test with LOX IMVI melanoma, more than 58.9 µM; with MDA-MB-435, more than 26.3 µM.
Take `CC1(C)N=[N+]([O-])C1(C)C`: the TGI in the test with SF-268 CNS, in the test on NCI-H522 lung, with COLO 205 colon, in the test on NCI-H23 lung, in the test on SW-620 colon and in the test with OVCAR-4 ovarian was more than 100 µM in each case. Besides, the TGI with U251 CNS, in the test with PC-3 prostate, with LOX IMVI melanoma and in the test with MDA-MB-435 was more than 100 µM each time.
For the compound `CC(=O)OC1CC(OC2C(O)CC(OC3C(O)CC(OC4CCC5(C)C(CCC6C5CC(O)C5(C)C(C7=CC(=O)OC7)CCC65O)C4)OC3C)OC2C)OC(C)C1OC1OC(CO)C(O)C(O)C1O` (centres undefined), the TGI was found to be 0.185 µM with SF-268 CNS; 0.114 µM in the test with NCI-H522 lung; 0.394 µM in the test on COLO 205 colon; 0.0744 µM in the test on NCI-H23 lung; 0.252 µM with SW-620 colon; 0.207 µM in the test with OVCAR-4 ovarian. Besides, the TGI with U251 CNS was found to be 0.207 µM; in the test with PC-3 prostate, 0.206 µM; in the test with LOX IMVI melanoma, 0.161 µM; in the test with MDA-MB-435, 0.61 µM. For the same compound, the GI50 in the test with PC-3 prostate is 0.0522 µM.
Turning to `COC(=O)c1ccccc1CC1Cc2ccc3c(c2C1=O)CCCC3` (centres undefined), the TGI with SF-268 CNS is more than 100 µM; with NCI-H522 lung it was more than 100 µM; in the test with COLO 205 colon, more than 100 µM; in the test on NCI-H23 lung, more than 100 µM; in the test on SW-620 colon, more than 100 µM; in the test with OVCAR-4 ovarian it was more than 79.4 µM. In addition, the TGI in the test on U251 CNS is more than 100 µM; with PC-3 prostate, more than 100 µM; in the test on LOX IMVI melanoma it was more than 87 µM; in the test on MDA-MB-435, more than 100 µM.
Consider `c1ccc(N=c2sc3ccccc3nc2Nc2ccccc2)cc1`, for which the TGI in the test with SF-268 CNS, in the test on NCI-H522 lung, in the test with COLO 205 colon, in the test with NCI-H23 lung, in the test with SW-620 colon and with OVCAR-4 ovarian was more than 100 µM throughout. Further, the TGI in the test with U251 CNS, in the test on PC-3 prostate, in the test on LOX IMVI melanoma and in the test with MDA-MB-435 was more than 100 µM throughout.
Turning to `Cc1ccc(C(=O)O)cc1S(=O)(=O)Nn1cnc2ccc(S(=O)(=O)Nc3ccccc3C(=O)O)cc2c1=O`, the TGI with SF-268 CNS, in the test on NCI-H522 lung, in the test on COLO 205 colon, in the test with NCI-H23 lung, in the test on SW-620 colon and in the test with OVCAR-4 ovarian was more than 100 µM in each case. Moreover, the TGI with U251 CNS, in the test with PC-3 prostate, in the test with LOX IMVI melanoma and in the test with MDA-MB-435 was more than 100 µM throughout.
In the case of `N#Cc1c(N2CCCC2)ncn(-c2ccccc2)c1=O`, the TGI in the test on SF-268 CNS, in the test with NCI-H522 lung, in the test on COLO 205 colon, in the test on NCI-H23 lung, in the test with SW-620 colon and in the test on OVCAR-4 ovarian was more than 100 µM each time. For the same compound, the TGI with U251 CNS, in the test on PC-3 prostate, in the test with LOX IMVI melanoma and in the test on MDA-MB-435 was more than 100 µM in each case.
On to `O=C1CCCSC(=O)N1Cc1ccccc1`, for which the TGI with SF-268 CNS, in the test with NCI-H522 lung, in the test with COLO 205 colon, in the test with NCI-H23 lung, with SW-620 colon and in the test with OVCAR-4 ovarian was more than 100 µM in each case. In addition, the TGI in the test on PC-3 prostate, in the test on LOX IMVI melanoma and with MDA-MB-435 was more than 100 µM in each case.
Consider `COc1ccc(N/N=C2\CCOc3ccc(C)cc3C2=O)cc1`, for which the TGI was more than 100 µM with SF-268 CNS; more than 100 µM with NCI-H522 lung; more than 100 µM with COLO 205 colon; more than 100 µM in the test with SW-620 colon; more than 100 µM in the test with OVCAR-4 ovarian; 66 µM in the test on U251 CNS. Further, the TGI is more than 100 µM in the test on PC-3 prostate, 30.9 µM in the test on LOX IMVI melanoma and 15.4 µM with MDA-MB-435.
